Measurements taken from ChEMBL document CHEMBL6092167, “Phosphorylation as an Effective Tool to Improve Stability and Reduce Toxicity of Antimicrobial Peptides” (J Med Chem, 2024).
Active and inactive are the calls of the source. The rule behind the calls is not given here. Non-standard residues stand in square brackets, D forms with d. Residues, ends and D or L forms follow the SMILES beside them. Bip = N[C@@H](Cc1ccc(-c2ccccc2)cc1)C(=O)O; pY = N[C@@H](Cc1ccc(OP(=O)(O)O)cc1)C(=O)O

Key:
Klebsiella pneumoniae [1] = experiment: Bactericidal activity against Klebsiella pneumoniae ATCC 700603 at 2 times MIC measured upto 1440 mins by time kill assay; type: functional, organism-based
Klebsiella pneumoniae [2] = experiment: Antibacterial activity against Klebsiella pneumoniae ATCC 700603 infected in BALB/c mouse lung infection model assessed as alveolar dilation at 5 mg/kg, ip administered twice daily for 3 days and measured after 7 days; type: functional, organism-based; conditions: time 10.0 day
Staphylococcus aureus [3] = experiment: Antibacterial activity against Staphylococcus aureus ATCC 25923 infected in BALB/c mouse systemic infection model assessed as improved alveoli dilation at 20 mg/kg, ip pre-infected for 2 hrs followed by compound addition and measured after 8 hrs postinfection; type: functional, organism-based; conditions: time 6.0 hrs
[4] = Toxicity in BALB/c mouse assessed as mortality at 40 to 130 mg/kg, ip measured after 14 days; type: organism-based; conditions: in vivo, 336 h, dose 40-130 mg/kg, time 14 day
Klebsiella pneumoniae [5] = experiment: Antibacterial activity against Klebsiella pneumoniae ATCC 700603 infected in BALB/c mouse lung infection model assessed as removal of bacterial load at 5 mg/kg, ip administered twice daily for 3 days and measured after 6 days; type: functional; conditions: time 9 day
Staphylococcus aureus [6] = experiment: Antibacterial activity against Staphylococcus aureus ATCC 25923 infected in BALB/c mouse systemic infection model assessed as reduction in bacterial load in liver at 20 mg/kg, ip pre-infected for 2 hrs followed by compound addition and measured after 8 hrs postinfection; type: functional, organism-based; conditions: time 6.0 hrs
Staphylococcus aureus [7] = experiment: Bactericidal activity against Staphylococcus aureus ATCC 25923 at 2 times MIC measured upto 1440 mins by time kill assay; type: functional, organism-based
Staphylococcus aureus [8] = experiment: Antibacterial activity against Staphylococcus aureus ATCC 25923 infected in BALB/c mouse systemic infection model assessed as reduction in inflammatory response in lung tissue at 20 mg/kg, ip pre-infected for 2 hrs followed by compound addition and measured after 8 hrs postinfection; type: functional, organism-based; conditions: time 6.0 hrs
Staphylococcus aureus [9] = experiment: Antibacterial activity against Staphylococcus aureus ATCC 25923 infected in BALB/c mouse systemic infection model assessed as reduction in bacterial load in kidney at 20 mg/kg, ip pre-infected for 2 hrs followed by compound addition and measured after 8 hrs postinfection; type: functional, organism-based; conditions: time 6.0 hrs
Escherichia coli [10] = experiment: Antibacterial activity against Escherichia coli ATCC 25922 in presence of […]; type: functional, organism-based
Klebsiella pneumoniae [11] = experiment: Bactericidal activity against Klebsiella pneumoniae ATCC 700603 at 2 times MIC within 60 mins by time kill assay; type: functional, organism-based
[12] = Toxicity in ip dosed BALB/c mouse assessed as effect on spleen at LD50 dose by H and E staining based assay; type: organism-based; conditions: in vivo
Escherichia coli [13] = experiment: Antibacterial activity against Escherichia coli ATCC 25922 in presence of KCl; type: functional, organism-based
[14] = Toxicity in BALB/c mouse assessed as mortality at 220 to 350 mg/kg, ip measured after 14 days; type: organism-based; conditions: in vivo, 336 h, dose 220-350 mg/kg, time 14 day
Staphylococcus aureus [15] = experiment: Antibacterial activity against Staphylococcus aureus ATCC 25923 infected in BALB/c mouse systemic infection model assessed as reduction in bacterial load in kidney at 21.21 mg/kg, ip pre-infected for 2 hrs followed by compound addition and measured after 8 hrs postinfection; type: functional, organism-based; conditions: time 6.0 hrs
Escherichia coli [16] = experiment: Antibacterial activity against Escherichia coli ATCC 25922 in presence of FeCl3; type: functional, organism-based
Klebsiella pneumoniae [17] = experiment: Antibacterial activity against Klebsiella pneumoniae ATCC 700603 infected in BALB/c mouse lung infection model assessed as removal of bacterial load at 5.31 mg/kg, ip administered twice daily for 3 days and measured after 6 days; type: functional; conditions: time 9 day
Escherichia coli [18] = experiment: Antibacterial activity against Escherichia coli ATCC 25922 assessed as fold increase in MIC in presence of MgCl2; type: functional
Klebsiella pneumoniae [19] = experiment: Antibacterial activity against Klebsiella pneumoniae ATCC 700603 infected in BALB/c mouse lung infection model assessed as increase in mouse survival at 5.31 mg/kg, ip administered twice daily for 3 days and measured for 7 days; type: functional, organism-based; conditions: time 10.0 day
[20] = Toxicity in ip dosed BALB/c mouse assessed as kidney bleeding at LD50 dose by H and E staining based assay; type: organism-based; conditions: in vivo
Staphylococcus aureus [21] = experiment: Antibacterial activity against Staphylococcus aureus ATCC 25923 in presence of KCl; type: functional, organism-based
Staphylococcus aureus [22] = experiment: Antibacterial activity against Staphylococcus aureus ATCC 25923 infected in BALB/c mouse systemic infection model assessed as reduction in bacterial load in lung at 21.21 mg/kg, ip pre-infected for 2 hrs followed by compound addition and measured after 8 hrs postinfection; type: functional, organism-based; conditions: time 6.0 hrs
Klebsiella pneumoniae [23] = experiment: Antibacterial activity against Klebsiella pneumoniae ATCC 700603 infected in BALB/c mouse lung infection model assessed as alveolar dilation at 5.31 mg/kg, ip administered twice daily for 3 days and measured after 7 days; type: functional, organism-based; conditions: time 10.0 day
Staphylococcus aureus [24] = experiment: Antibacterial activity against Staphylococcus aureus ATCC 25923 in presence of FeCl3; type: functional, organism-based
Escherichia coli [25] = experiment: Antibacterial activity against Escherichia coli ATCC 25922 preincubated with serum for 6 hrs followed by 15 mins inactivation prior to bacteria addition and measured after 18 to 24 hrs; type: functional, organism-based; conditions: time 18-24 hrs

Q: For `CC(C)C[C@H](NC(=O)[C@H](CC(C)C)NC(=O)[C@H](Cc1ccc(O)cc1)NC(=O)[C@H](CCCCN)NC(=O)[C@H](CC(C)C)NC(=O)[C@H](CCCNC(=N)N)NC(=O)[C@H](CCCCN)NC(=O)[C@H](Cc1ccc(-c2ccccc2)cc1)NC(=O)[C@H](CC(C)C)NC(=O)CN)C(N)=O` (H-GL[Bip]KRLKYLL-NH2), which Activity (Klebsiella pneumoniae [1]) is on record?
A: Active

Q: What about the Activity (Klebsiella pneumoniae [2]) of the same compound?
A: Active

Q: What about the Activity (Staphylococcus aureus [3]) of the same compound?
A: Active

Q: And the Activity [4]?
A: Toxic

Q: And the Activity (Klebsiella pneumoniae [5])?
A: 100%

Q: And the Activity (Staphylococcus aureus [6])?
A: Active

Q: And the Activity (Staphylococcus aureus [7])?
A: Active

Q: And the Activity (Staphylococcus aureus [8])?
A: Active

Q: What about the Activity (Staphylococcus aureus [9]) of the same compound?
A: Active

Q: With `CC(C)C[C@H](NC(=O)[C@H](CC(C)C)NC(=O)[C@H](Cc1ccc(OP(=O)(O)O)cc1)NC(=O)[C@H](CCCCN)NC(=O)[C@H](CC(C)C)NC(=O)[C@H](CCCNC(=N)N)NC(=O)[C@H](CCCCN)NC(=O)[C@H](Cc1ccc(-c2ccccc2)cc1)NC(=O)[C@H](CC(C)C)NC(=O)CN)C(N)=O` (H-GL[Bip]KRLK[pY]LL-NH2) as the compound, how does the Activity (Escherichia coli [10]) read?
A: Active; Compound Showed Excellent Tolerance Towards Salt Environment

Q: What about the Activity (Klebsiella pneumoniae [11]) of the same compound?
A: Active

Q: And the Activity [12]?
A: Toxic

Q: What about the Activity (Escherichia coli [13]) of the same compound?
A: Active; Compound Showed Excellent Tolerance Towards Salt Environment

Q: And the Activity [14]?
A: Toxic

Q: And the Activity (Staphylococcus aureus [15])?
A: Active

Q: What about the Activity (Escherichia coli [16]) of the same compound?
A: Active; Compound Showed Excellent Tolerance Towards Salt Environment

Q: And the Activity (Klebsiella pneumoniae [17])?
A: 100%

Q: And the “fold change (FC)” value (Escherichia coli [18])?
A: 2

Q: What about the Activity (Klebsiella pneumoniae [19]) of the same compound?
A: Active; Comparable Activity To Polymyxin B

Q: And the Activity [20]?
A: Toxic

Q: What about the Activity (Staphylococcus aureus [21]) of the same compound?
A: Active; Compound Showed Excellent Tolerance Towards Salt Environment

Q: And the Activity (Staphylococcus aureus [22])?
A: Active

Q: What about the Activity (Klebsiella pneumoniae [23]) of the same compound?
A: Active

Q: And the Activity (Staphylococcus aureus [24])?
A: Active; Compound Showed Excellent Tolerance Towards Salt Environment

Q: And the Activity (Escherichia coli [25])?
A: Active; Antibacterial Activity Remained Unaffected
